In PubChem BioAssay AID248 (DTP/NCI, 2004):
Several values for one entry are separate records, joined by “and”; a condition that tells them apart may be missing. Identical values can stand only once. Inconclusive results and toxic doses are left out. Cut-off read from the data, not from the text of the source: active = T/C of 150% or more; inactive = T/C below 125%.

System: L1210 leukemia ip in BDF1 mice, survival T/C
Experiment: NCI In Vivo Anticancer Drug Screen. Data for tumor model L1210 Leukemia (intraperitoneal) in B6D2F1 (BDF1) mice
Conditions: endpoint: mean survival time, higher = longer survival
Method in brief: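 Tumor was transplanted into mice, which were then dosed with test compound or vehicle alone. Survival was recorded for each group, and the treated figure was expressed relative to the control figure.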

[1] = dose: 50.0 mg/kg/injection, schedule: Q01DX001 (ip), vehicle: saline
[2] = dose: 200.0 mg/kg/injection, schedule: Q01DX001 (ip), vehicle: saline
[3] = dose: 100.0 mg/kg/injection, schedule: Q01DX009 (ip), vehicle: saline with Tween-80
[4] = dose: 100.0 mg/kg/injection, schedule: Q04DX003 (ip), vehicle: saline with Tween-80
[5] = dose: 200.0 mg/kg/injection, schedule: Q01DX009 (ip), vehicle: saline with Tween-80
[6] = dose: 200.0 mg/kg/injection, schedule: Q04DX003 (ip), vehicle: saline with Tween-80
[7] = dose: 400.0 mg/kg/injection, schedule: Q01DX009 (ip), vehicle: saline with Tween-80
[8] = dose: 400.0 mg/kg/injection, schedule: Q04DX003 (ip), vehicle: saline with Tween-80
[9] = dose: 100.0 mg/kg/injection, schedule: Q01DX001 (ip), vehicle: saline with Tween-80
[10] = dose: 200.0 mg/kg/injection, schedule: Q01DX001 (ip), vehicle: saline with Tween-80
[11] = dose: 400.0 mg/kg/injection, schedule: Q01DX001 (ip), vehicle: saline with Tween-80

Measured: T/C

CCSC1OC(C(COC(C)=O)OC(C)=O)C(OC(C)=O)C1NC(=O)OCc1ccccc1 (centres undefined)
inactive: [1] 100 % of control | dose: 100.0 mg/kg/injection, schedule: Q01DX001 (ip), vehicle: saline 97 % of control | [2] 97 % of control | dose: 400.0 mg/kg/injection, schedule: Q01DX001 (ip), vehicle: saline 91 % of control

NC(=S)N/N=C/c1cc(Cl)cc(Cl)c1
inactive: dose: 100.0 mg/kg/injection, schedule: Q01DX001 (ip), vehicle: other 96 % of control | dose: 200.0 mg/kg/injection, schedule: Q01DX001 (ip), vehicle: other 102 % of control | dose: 400.0 mg/kg/injection, schedule: Q01DX001 (ip), vehicle: other 106 % of control

Cc1ccc(S(=O)(=O)OC2CS(=O)(=O)C2)cc1
inactive: [3] 100 % of control | [4] 105 % of control | [5] 95 % of control | [6] 100 % of control | [7] 105 % of control | [8] 97 % of control

NC(CSC(c1ccccc1)(c1ccccc1)c1ccc(O)cc1)C(=O)O (centres undefined)
inactive: dose: 6.25 mg/kg/injection, schedule: Q01DX009 (ip), vehicle: saline 111 % of control | dose: 12.5 mg/kg/injection, schedule: Q01DX009 (ip), vehicle: saline 105 % of control | dose: 25.0 mg/kg/injection, schedule: Q01DX009 (ip), vehicle: saline 116 % of control | dose: 75.0 mg/kg/injection, schedule: Q01DX001 (ip), vehicle: other 104 % of control | dose: 150.0 mg/kg/injection, schedule: Q01DX001 (ip), vehicle: other 109 % of control

CCOc1ccc(Cl)cc1C1N(Cc2ccc(OC)cc2)CCCN1Cc1ccc(OC)cc1
inactive: dose: 100.0 mg/kg/injection, schedule: Q01DX001 (ip), vehicle: carboxymethylcellulose (CMC) 98 % of control | dose: 200.0 mg/kg/injection, schedule: Q01DX001 (ip), vehicle: carboxymethylcellulose (CMC) 98 % of control | dose: 400.0 mg/kg/injection, schedule: Q01DX001 (ip), vehicle: carboxymethylcellulose (CMC) 102 % of control

CC(C)CC(NC(=O)OCc1ccccc1)C(=O)NCCCCCCNCCCCCCNC(=O)C(CC(C)C)NC(=O)OCc1ccccc1 (centres undefined)
inactive: [1] 95 % of control | [2] 98 % of control

c1ccc2c(c1)-c1ccccc1[Si]21c2ccccc2-c2ccccc21
inactive: [3] 97 % of control | [5] 92 % of control | [7] 91 % of control

O=C(Nc1cccc2ccccc12)OCc1ccco1
inactive: [9] 96 % of control | [3] 93 % of control and 96 % of control | dose: 100.0 mg/kg/injection, schedule: Q04DX002 (ip), vehicle: saline with Tween-80 96 % of control and 118 % of control | [4] 105 % of control | [10] 97 % of control | [5] 100 % of control and 86 % of control | dose: 200.0 mg/kg/injection, schedule: Q04DX002 (ip), vehicle: saline with Tween-80 96 % of control and 91 % of control | [6] 100 % of control | [11] 103 % of control | [7] 93 % of control and 94 % of control | dose: 400.0 mg/kg/injection, schedule: Q04DX002 (ip), vehicle: saline with Tween-80 104 % of control | [8] 103 % of control

O=C1CCC(NC(=O)C(F)(F)F)C(=O)O1 (centres undefined)
inactive: dose: 100.0 mg/kg/injection, schedule: Q04DX003 (ip), vehicle: Klucel (hydroxypropylcellulose) (HPC) 101 % of control | dose: 200.0 mg/kg/injection, schedule: Q04DX003 (ip), vehicle: Klucel (hydroxypropylcellulose) (HPC) 94 % of control | dose: 400.0 mg/kg/injection, schedule: Q04DX003 (ip), vehicle: Klucel (hydroxypropylcellulose) (HPC) 92 % of control

O=C(O)c1cccc(CCc2cccnc2)c1
inactive: [9] 98 % of control | [10] 101 % of control | [11] 93 % of control

C=CCCCCCCCCCNc1cc2c3c(c1)CCCN3CCC2
inactive: dose: 0.19 mg/kg/injection, schedule: Q01DX003 (ip), vehicle: saline 90 % of control | dose: 0.19 mg/kg/injection, schedule: Q01DX009 (ip), vehicle: saline 108 % of control | dose: 0.39 mg/kg/injection, schedule: Q01DX003 (ip), vehicle: saline 98 % of control | dose: 0.39 mg/kg/injection, schedule: Q01DX009 (ip), vehicle: saline 98 % of control | dose: 0.78 mg/kg/injection, schedule: Q01DX003 (ip), vehicle: saline 101 % of control

O=C(Nc1ccc2c(c1)C(=O)c1ccccc1-2)c1ccccc1
inactive: [9] 88 % of control | [10] 88 % of control | [11] 88 % of control

CN=C(NC(C=O)C(O)C(O)C(O)CO)c1ccc(NC(=O)c2ccc(C(=O)Nc3ccc(C(=NC)NC(C=O)C(O)C(O)C(O)CO)cc3)cc2)cc1 (centres undefined)
inactive: dose: 62.0 mg/kg/injection, schedule: Q01DX Z (ip), vehicle: water 111 % of control | dose: 125.0 mg/kg/injection, schedule: Q01DX Z (ip), vehicle: water 115 % of control
